Experimental findings from PubChem BioAssay (NCI) are described below.

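96-well plates; 48 h exposure; 5 concentrations. Endpoints by linear interpolation between flanking doses. Not reached: highest tested concentration assigned. The concentration for full growth arrest is given as TGI.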 A value given as a limit tells only on which side of the number the result lay.

Test in all cases: NCI-60 cell line screen, 48 h
For assay [1], the system named is A498 renal.
Assay [2] concerns CAKI-1 renal.
The test system of assay [3] is HCT-116 colon.
Assay [4] concerns HCT-15 colon.
The subject of assay [5] is KM12 colon.
Assay [6] deals with M14 melanoma.
Assay [7] relates to NCI-H226 lung.
The subject of assay [8] is SR leukemia.
The subject of assay [9] is U251 CNS.
The subject of assay [10] is SNB-75 CNS.

Regarding `CC(C)SC(=S)Sc1c(Cl)c(Cl)nc(Cl)c1Cl`, the TGI in assay [1] is 31.5 µM; in assay [2], 8.49 µM; in assay [3], 22.4 µM; in assay [4], over 34.1 µM; in assay [5], 21.4 µM; in assay [6], 26.7 µM. Further, the figures for the TGI in assay [7], in assay [8] and in assay [9] were 50.3 µM, 11.3 µM and 14 µM, respectively.
As for `COc1cc(OC)cc(C(=O)CC(=O)c2cc(OC)cc(OC)c2)c1`, the TGI in assay [1], in assay [3], in assay [4], in assay [5], in [6] and in [7] was over 100 µM in each case. Also, the TGI in [10], in assay [8] and in [9] was over 100 µM in each case.
With `CCOC(=O)C1S/C(=N\C(=N)N[N+](=O)[O-])N=C1C` (stereo not drawn), the TGI in assay [1], in [3], in assay [4], in [5], in assay [7] and in assay [10] was over 100 µM each time. Also, the TGI in [8] and in assay [9] was over 100 µM in each case.
As to `OC[C@H]1O[C@@H]2O[C@@](COCc3ccccc3)([C@H](OCc3ccccc3)[C@H]2O)[C@@H]1OCc1ccccc1`, the TGI is 32.1 µM in assay [1]; 29.8 µM in [2]; 30.1 µM in [3]; 36.1 µM in [4]; 32.1 µM in assay [5]; 32.9 µM in assay [6]. For the same compound, the TGI in assay [10] was determined as 29.7 µM; in assay [8], 5.83 µM; in [9], 29.5 µM.
Consider `CCOC(=O)c1c(-c2ccc(O)c(OC)c2)c(C#N)c(=S)n(C2OC(CO)C(O)C(O)C2O)c1-c1ccccc1` (stereo not drawn), for which the TGI in assay [1], in assay [2], in [3], in [4], in [5] and in [6] was over 100 µM each time. Also, the TGI in assay [7], in assay [8] and in [9] was over 100 µM each time.
`C=C1CC(C#N)(C#N)[C@H]2C3CCCC3C[C@@H]12` (stereo partly drawn) (tested in a mixture with another compound): the TGI in assay [1] turned out to be 48 µM; in [3] it was 19.4 µM; in assay [4], 32.8 µM; in assay [5], 43.3 µM; in assay [6], 29.2 µM; in [7], 61.9 µM. Also, the TGI in assay [8] turned out to be 53.6 µM; in [9], 40.4 µM.
With `COC(=O)C(Cc1ccc2c(c1)CCC2)Cc1ccc2c(c1)CCC2`, the TGI in assay [1], in assay [3], in assay [4], in [5], in assay [6] and in assay [7] was over 100 µM in each case. Also, the TGI in [10], in assay [8] and in assay [9] was over 100 µM in each case.
As for `Cn1c(SCc2ccc(F)cc2)nnc1C12CC3CC(CC(C3)C1)C2`, the TGI in [1] is 48.4 µM; in assay [2], over 100 µM; in assay [3], over 100 µM; in [4], over 100 µM; in assay [6], 71.8 µM; in assay [7], over 100 µM. Moreover, the TGI is over 100 µM in assay [10], 93.9 µM in [8] and over 100 µM in assay [9].
For `O=C(O)COc1ccccc1C(=O)Nc1ccccc1`, the TGI in assay [2], in assay [3], in assay [4], in assay [5], in assay [6] and in assay [7] was over 100 µM each time. The TGI in assay [10], in assay [8] and in [9] was over 100 µM each time.
On to `C=CCn1c(=O)c(C(=O)Nc2nc(C34CC5CC(CC(C5)C3)C4)cs2)c(O)c2ccccc21`, for which the TGI in assay [1], in assay [2], in assay [3], in assay [4], in assay [5] and in [7] was over 100 µM each time. Besides, the TGI in assay [10], in assay [8] and in [9] was over 100 µM in each case.
Consider `CC(c1ccccc1)N1CCN(C(C)c2ccccc2)CC1` (stereo not drawn), for which the TGI in [1] is over 100 µM; in assay [2], over 100 µM; in assay [3], over 100 µM; in assay [4], over 100 µM; in [5] it was over 100 µM; in [6], 53 µM. Also, the TGI in assay [7], in assay [8] and in assay [9] was over 100 µM each time.
Regarding `COC(C)(C)C1(O)CC[C@@H](C)CC1=O` (stereo partly drawn), the TGI in assay [1], in [2], in assay [3], in assay [4], in [5] and in [6] was over 100 µM each time. Moreover, the TGI in assay [10], in assay [8] and in assay [9] was over 100 µM throughout.
`Cc1c2n(c(=O)[nH]c1=O)C1OC(CO)C(N=[N+]=[N-])C1O2` (stereo not drawn): the TGI in [1], in assay [2], in assay [3], in [4], in assay [5] and in [7] was over 100 µM throughout. Besides, the TGI in [10], in [8] and in assay [9] was over 100 µM in each case.
Consider `NS(=O)(=O)c1ccc(NC(=S)/N=C/C2=C(O)c3ccccc3C2=O)cc1`, for which the TGI in assay [1], in assay [2], in [3], in assay [4], in assay [5] and in [6] was over 100 µM throughout. Further, the TGI in assay [10] was 76.4 µM; in assay [8], over 100 µM; in assay [9], over 100 µM.
In the case of `CC1=CCC([C@@](C)(O)CCCC(C)(C)N=C=S)CC1` (stereo partly drawn), the TGI worked out at 28.7 µM in assay [1]; 26.6 µM in assay [3]; 34.2 µM in assay [4]; 29.5 µM in assay [5]; 30.8 µM in assay [6]; 32.1 µM in [7]. In addition, the TGI in assay [10] worked out at 32.4 µM; in assay [8], 41.7 µM; in assay [9], 32.9 µM.
